# Reference: PubChem BioAssay (NCI)
#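 Compound exposure: 48 hours, 5 concentrations, 96-well plates. GI50 is the concentration that inhibits growth by half. The concentration for full growth arrest is given as TGI.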
# What was measured:
# Test in all cases: NCI anticancer screen, dose series, 48 h
# [1] = test system: OVCAR-5 ovarian
# [2] = test system: UO-31 renal
# [3] = test system: HS 578T breast
# [4] = test system: SNB-75 CNS
# [5] = test system: COLO 205 colon
# [6] = test system: HL-60(TB) leukemia
# [7] = test system: NCI-H226 lung
# [8] = test system: SF-268 CNS
# [9] = test system: OVCAR-3 ovarian
# [10] = test system: NCI-H460 lung
# [11] = test system: RXF 393 renal
# [12] = test system: BT-549 breast
# [13] = test system: DU-145 prostate
# [14] = test system: HT29 colon
# [15] = test system: OVCAR-4 ovarian
# [16] = test system: NCI-H23 lung
# [17] = test system: LOX IMVI melanoma
# [18] = test system: SK-OV-3 ovarian
# [19] = test system: K-562 leukemia
# [20] = test system: CCRF-CEM leukemia
# [21] = test system: IGROV1 ovarian
# [22] = test system: UACC-62 melanoma
# [23] = test system: NCI-H522 lung
# [24] = test system: UACC-257 melanoma
# [25] = test system: KM12 colon
# [26] = test system: CAKI-1 renal
# [27] = test system: MDA-MB-435
# [28] = test system: HCC-2998 colon
# [29] = test system: RPMI-8226 leukemia
# [30] = test system: SR leukemia
# [31] = test system: HCT-116 colon
# [32] = test system: MOLT-4 leukemia
# [33] = test system: A549 NSCLC
# [34] = test system: SW-620 colon
# [35] = test system: MCF7 breast
# [36] = test system: HCT-15 colon
# [37] = test system: A498 renal
# [38] = test system: EKVX NSCLC
# [39] = test system: HOP-62 NSCLC
# [40] = test system: ACHN renal
# [41] = test system: PC-3 prostate
# [42] = test system: MALME-3M melanoma
# [43] = test system: SK-MEL-28 melanoma
# [44] = test system: M14 melanoma
# [45] = test system: HOP-92 NSCLC
# [46] = test system: SF-539 CNS
# [47] = test system: SK-MEL-5 melanoma
# [48] = test system: TK-10 renal
# [49] = test system: NCI/ADR-RES ovarian
# [50] = test system: U251 CNS
# [51] = test system: OVCAR-8 ovarian
# [52] = test system: T-47D breast
# [53] = test system: SK-MEL-2 melanoma
# [54] = test system: SNB-19 CNS
# [55] = test system: SN12C renal
# [56] = test system: MDA-MB-231 breast
# [57] = test system: 786-0 renal
# [58] = test system: SF-295 CNS
structure (smiles),measurement,setting,value
C/C(=N\NC(=O)c1ccc(C(C)(C)C)cc1)c1ccc(O)cc1O,GI50,[1],0.862 µM
same,TGI,[1],> 100 µM
same,GI50,[2],0.377 µM
same,TGI,[2],> 100 µM
same,GI50,[3],3.26 µM
same,TGI,[3],> 100 µM
same,GI50,[4],1.27 µM
same,TGI,[4],17.9 µM
same,GI50,[5],0.386 µM
same,TGI,[5],> 34.1 µM
same,GI50,[6],1.08 µM
same,TGI,[6],11.1 µM
same,GI50,[7],0.843 µM
same,TGI,[7],14 µM
same,GI50,[8],0.528 µM
same,TGI,[8],> 100 µM
same,GI50,[9],0.309 µM
same,TGI,[9],> 100 µM
same,GI50,[10],0.347 µM
same,TGI,[10],10.3 µM
same,GI50,[11],2.11 µM
same,TGI,[11],10.2 µM
same,GI50,[12],1.83 µM
same,TGI,[12],> 65.8 µM
same,GI50,[13],0.705 µM
same,TGI,[13],> 100 µM
same,GI50,[14],0.689 µM
same,TGI,[14],14.2 µM
same,GI50,[15],0.306 µM
same,GI50,[16],1.18 µM
same,TGI,[16],> 100 µM
same,GI50,[17],0.318 µM
same,TGI,[17],1.92 µM
same,GI50,[18],1.06 µM
same,TGI,[18],> 100 µM
same,GI50,[19],0.568 µM
same,TGI,[19],> 100 µM
same,GI50,[20],0.331 µM
same,TGI,[20],> 30.9 µM
same,GI50,[21],0.572 µM
same,TGI,[21],> 100 µM
same,GI50,[22],0.671 µM
same,TGI,[22],> 100 µM
same,GI50,[23],1.89 µM
same,TGI,[23],> 100 µM
same,GI50,[24],1.51 µM
same,TGI,[24],> 100 µM
same,GI50,[25],0.511 µM
same,TGI,[25],> 100 µM
same,GI50,[26],0.392 µM
same,TGI,[26],4.72 µM
same,GI50,[27],0.81 µM
same,TGI,[27],> 100 µM
same,GI50,[28],0.638 µM
same,TGI,[28],61.4 µM
same,GI50,[29],0.763 µM
same,TGI,[29],> 59.9 µM
same,GI50,[30],0.379 µM
same,TGI,[30],> 62.2 µM
same,GI50,[31],0.298 µM
same,TGI,[31],> 100 µM
same,GI50,[32],0.344 µM
same,TGI,[32],> 100 µM
same,GI50,[33],0.751 µM
same,TGI,[33],> 100 µM
same,GI50,[34],0.602 µM
same,TGI,[34],> 100 µM
same,GI50,[35],0.628 µM
same,TGI,[35],> 100 µM
same,GI50,[36],0.396 µM
same,TGI,[36],> 100 µM
same,GI50,[37],1.38 µM
same,TGI,[37],> 100 µM
same,GI50,[38],0.442 µM
same,TGI,[38],> 100 µM
same,GI50,[39],0.484 µM
same,TGI,[39],> 100 µM
same,GI50,[40],0.491 µM
same,TGI,[40],> 100 µM
same,GI50,[41],1.08 µM
same,TGI,[41],> 100 µM
same,GI50,[42],1.14 µM
same,TGI,[42],45.2 µM
same,GI50,[43],1.67 µM
same,TGI,[43],> 100 µM
same,GI50,[44],0.532 µM
same,TGI,[44],7.34 µM
same,GI50,[45],4.22 µM
same,TGI,[45],> 100 µM
same,GI50,[46],0.648 µM
same,TGI,[46],> 70.4 µM
same,GI50,[47],1.47 µM
same,TGI,[47],4.74 µM
same,GI50,[48],0.886 µM
same,TGI,[48],> 100 µM
same,GI50,[49],0.416 µM
same,TGI,[49],> 100 µM
same,GI50,[50],0.615 µM
same,TGI,[50],> 100 µM
same,GI50,[51],0.673 µM
same,TGI,[51],> 100 µM
same,GI50,[52],1.07 µM
same,TGI,[52],> 100 µM
same,GI50,[53],2.38 µM
same,TGI,[53],> 100 µM
same,GI50,[54],2.36 µM
same,TGI,[54],> 100 µM
same,GI50,[55],1.24 µM
same,TGI,[55],> 100 µM
same,GI50,[56],0.791 µM
same,TGI,[56],> 100 µM
same,GI50,[57],0.985 µM
same,TGI,[57],13.5 µM
COc1cc(C(=O)N2CCN(c3ccccn3)CC2)c(N)cc1OCc1ccccc1,GI50,[1],> 100 µM
same,TGI,[1],> 100 µM
same,GI50,[2],68.3 µM
same,TGI,[2],> 100 µM
same,GI50,[3],> 100 µM
same,TGI,[3],> 100 µM
same,GI50,[4],39.9 µM
same,TGI,[4],> 100 µM
same,GI50,[5],96.8 µM
same,TGI,[5],> 100 µM
same,GI50,[6],82.4 µM
same,TGI,[6],> 100 µM
same,GI50,[7],> 100 µM
same,TGI,[7],> 100 µM
same,GI50,[8],> 100 µM
same,TGI,[8],> 100 µM
same,GI50,[9],55.8 µM
same,TGI,[9],> 100 µM
same,GI50,[10],> 100 µM
same,TGI,[10],> 100 µM
same,GI50,[11],> 100 µM
same,TGI,[11],> 100 µM
same,GI50,[12],66.4 µM
same,TGI,[12],> 100 µM
same,GI50,[13],> 100 µM
same,TGI,[13],> 100 µM
same,GI50,[14],78.2 µM
same,TGI,[14],> 100 µM
same,GI50,[15],69.9 µM
same,TGI,[15],> 100 µM
same,GI50,[16],> 100 µM
same,TGI,[16],> 100 µM
same,GI50,[17],> 100 µM
same,TGI,[17],> 100 µM
same,GI50,[18],> 100 µM
same,TGI,[18],> 100 µM
same,GI50,[19],20 µM
same,TGI,[19],74.1 µM
same,GI50,[20],21 µM
same,TGI,[20],39.5 µM
same,GI50,[21],> 100 µM
same,TGI,[21],> 100 µM
same,GI50,[22],81 µM
same,TGI,[22],> 100 µM
same,GI50,[23],> 100 µM
same,TGI,[23],> 100 µM
same,GI50,[24],> 100 µM
same,TGI,[24],> 100 µM
same,GI50,[25],> 100 µM
same,TGI,[25],> 100 µM
same,GI50,[26],> 100 µM
same,TGI,[26],> 100 µM
same,GI50,[27],> 100 µM
same,TGI,[27],> 100 µM
same,GI50,[28],> 100 µM
same,TGI,[28],> 100 µM
same,GI50,[58],> 100 µM
same,TGI,[58],> 100 µM
same,GI50,[29],56.4 µM
same,TGI,[29],> 100 µM
same,GI50,[30],77.7 µM
same,TGI,[30],> 100 µM
same,GI50,[31],> 100 µM
same,TGI,[31],> 100 µM
same,GI50,[32],34.1 µM
same,TGI,[32],> 100 µM
same,GI50,[33],> 100 µM
same,TGI,[33],> 100 µM
same,GI50,[34],> 100 µM
same,TGI,[34],> 100 µM
same,GI50,[35],58.5 µM
same,TGI,[35],> 100 µM
same,GI50,[36],> 100 µM
same,TGI,[36],> 100 µM
same,GI50,[37],91.2 µM
same,TGI,[37],> 100 µM
same,GI50,[38],> 100 µM
same,TGI,[38],> 100 µM
same,GI50,[40],> 100 µM
same,TGI,[40],> 100 µM
same,GI50,[41],> 100 µM
same,TGI,[41],> 100 µM
same,GI50,[42],> 100 µM
same,TGI,[42],> 100 µM
same,GI50,[43],> 100 µM
same,TGI,[43],> 100 µM
same,GI50,[44],> 100 µM
same,TGI,[44],> 100 µM
same,GI50,[45],> 100 µM
same,TGI,[45],> 100 µM
same,GI50,[46],> 100 µM
same,TGI,[46],> 100 µM
same,GI50,[47],30.1 µM
same,TGI,[47],> 100 µM
same,GI50,[48],> 100 µM
same,TGI,[48],> 100 µM
same,GI50,[49],74.6 µM
same,TGI,[49],> 100 µM
same,GI50,[50],> 100 µM
same,TGI,[50],> 100 µM
same,GI50,[51],> 100 µM
same,TGI,[51],> 100 µM
same,GI50,[52],45.2 µM
same,TGI,[52],> 100 µM
same,GI50,[53],> 100 µM
same,TGI,[53],> 100 µM
same,GI50,[54],> 100 µM
same,TGI,[54],> 100 µM
same,GI50,[55],46.8 µM
same,TGI,[55],> 100 µM
same,GI50,[56],> 100 µM
same,TGI,[56],> 100 µM
same,GI50,[57],> 100 µM
same,TGI,[57],> 100 µM
